Tests used:
Type in all cases: biochemical
JAK1-JH1JH2 = JAK1-JH1JH2 (Homo sapiens (Human), UniProt P23458); assay: Enzymatic inhibition assay (RapidFire HTMS), JAK1; settings: 12.5 μM ATP, 200 μM substrate; read-out: JAK1-JH2JH1 IC50
Method in brief: (§1)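 Quenched with 0.5% TFA plus internal-standard peptide; phosphorylated product quantified by RapidFire C4 SPE–ESI-MS, 11-point 1:3 or 1:4 dilutions in duplicate.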

JAK3-JH1JH2 = JAK3-JH1JH2 (Homo sapiens (Human), UniProt P52333); assay: Enzymatic inhibition assay (RapidFire HTMS), JAK3; settings: 150 μM ATP, 40 μM substrate
JAK3-JH1JH2, sequence (P52333 512-1124): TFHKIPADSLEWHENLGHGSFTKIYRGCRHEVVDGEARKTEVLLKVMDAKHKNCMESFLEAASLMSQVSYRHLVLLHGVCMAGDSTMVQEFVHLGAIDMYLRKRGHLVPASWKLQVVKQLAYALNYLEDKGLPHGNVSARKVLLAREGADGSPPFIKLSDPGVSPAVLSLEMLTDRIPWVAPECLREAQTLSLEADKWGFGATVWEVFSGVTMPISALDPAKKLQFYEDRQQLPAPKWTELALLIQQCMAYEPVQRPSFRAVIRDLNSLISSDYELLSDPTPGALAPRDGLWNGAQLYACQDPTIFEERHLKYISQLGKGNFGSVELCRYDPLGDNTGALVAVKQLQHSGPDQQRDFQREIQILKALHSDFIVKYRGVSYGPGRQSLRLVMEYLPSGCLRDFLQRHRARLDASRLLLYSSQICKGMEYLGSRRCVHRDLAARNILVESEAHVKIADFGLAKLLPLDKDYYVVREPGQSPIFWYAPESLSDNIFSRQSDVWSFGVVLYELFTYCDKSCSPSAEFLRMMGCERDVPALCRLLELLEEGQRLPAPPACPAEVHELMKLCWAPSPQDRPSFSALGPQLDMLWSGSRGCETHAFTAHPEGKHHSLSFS
Method in brief: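 JAK3 JH1JH2 reaction incubated 45 min at 25 °C, then quenched with 0.5% TFA containing 0.15 μM internal standard peptide. Phosphopeptide product measured by RapidFire C4 SPE–ESI MS (positive mode); inhibition from product decrease versus uninhibited enzyme, 11-point 1:3 or 1:4 dilutions in duplicate.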

Tyk2-JH1JH2 = Tyk2-JH1JH2 (Homo sapiens (Human), UniProt P29597, C1142A/C936A); assay: Enzymatic inhibition assay (RapidFire HTMS), Tyk2; settings: 50 μM ATP, 200 μM substrate
Tyk2-JH1JH2, sequence (P29597 580-1182 C936A/C1142A): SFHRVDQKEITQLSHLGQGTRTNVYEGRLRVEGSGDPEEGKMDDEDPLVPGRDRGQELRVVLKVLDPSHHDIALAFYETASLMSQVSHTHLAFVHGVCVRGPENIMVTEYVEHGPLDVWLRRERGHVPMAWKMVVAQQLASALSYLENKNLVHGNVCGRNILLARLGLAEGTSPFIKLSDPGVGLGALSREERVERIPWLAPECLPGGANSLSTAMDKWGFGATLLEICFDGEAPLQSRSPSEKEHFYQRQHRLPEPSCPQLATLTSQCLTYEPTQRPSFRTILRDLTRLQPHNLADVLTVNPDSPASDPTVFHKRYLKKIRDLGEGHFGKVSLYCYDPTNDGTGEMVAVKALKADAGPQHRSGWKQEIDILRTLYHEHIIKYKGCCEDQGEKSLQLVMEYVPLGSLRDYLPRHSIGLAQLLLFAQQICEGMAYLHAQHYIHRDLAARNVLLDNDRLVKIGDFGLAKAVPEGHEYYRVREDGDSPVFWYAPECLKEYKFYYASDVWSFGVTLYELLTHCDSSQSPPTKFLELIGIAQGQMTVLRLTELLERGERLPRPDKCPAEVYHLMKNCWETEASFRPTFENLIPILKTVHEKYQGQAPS
Method in brief: as §1

JAK2-JH1JH2 = JAK2-JH1JH2 (Homo sapiens (Human), UniProt O60674); assay: Enzymatic inhibition assay (RapidFire HTMS), JAK2; settings: 30 μM ATP, 40 μM substrate
JAK2-JH1JH2, sequence (O60674 532-1132): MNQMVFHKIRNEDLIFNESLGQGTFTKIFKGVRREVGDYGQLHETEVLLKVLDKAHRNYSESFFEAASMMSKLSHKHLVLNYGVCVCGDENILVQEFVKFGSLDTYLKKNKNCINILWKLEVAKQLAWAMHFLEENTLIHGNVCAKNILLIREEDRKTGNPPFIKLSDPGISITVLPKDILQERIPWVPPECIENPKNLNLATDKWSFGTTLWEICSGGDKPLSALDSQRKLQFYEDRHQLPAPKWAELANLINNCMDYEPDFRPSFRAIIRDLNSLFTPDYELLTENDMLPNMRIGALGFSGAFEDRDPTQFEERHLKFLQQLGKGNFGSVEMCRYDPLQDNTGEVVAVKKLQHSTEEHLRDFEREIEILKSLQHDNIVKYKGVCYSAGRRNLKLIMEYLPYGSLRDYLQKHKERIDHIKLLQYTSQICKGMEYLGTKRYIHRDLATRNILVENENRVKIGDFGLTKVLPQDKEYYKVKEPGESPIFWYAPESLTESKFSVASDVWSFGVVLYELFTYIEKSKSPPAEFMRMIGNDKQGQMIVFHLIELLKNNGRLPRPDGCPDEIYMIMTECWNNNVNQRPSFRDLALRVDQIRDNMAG
Method in brief: as §1

JAK1-JH1JH2, sequence (P23458 574-1154): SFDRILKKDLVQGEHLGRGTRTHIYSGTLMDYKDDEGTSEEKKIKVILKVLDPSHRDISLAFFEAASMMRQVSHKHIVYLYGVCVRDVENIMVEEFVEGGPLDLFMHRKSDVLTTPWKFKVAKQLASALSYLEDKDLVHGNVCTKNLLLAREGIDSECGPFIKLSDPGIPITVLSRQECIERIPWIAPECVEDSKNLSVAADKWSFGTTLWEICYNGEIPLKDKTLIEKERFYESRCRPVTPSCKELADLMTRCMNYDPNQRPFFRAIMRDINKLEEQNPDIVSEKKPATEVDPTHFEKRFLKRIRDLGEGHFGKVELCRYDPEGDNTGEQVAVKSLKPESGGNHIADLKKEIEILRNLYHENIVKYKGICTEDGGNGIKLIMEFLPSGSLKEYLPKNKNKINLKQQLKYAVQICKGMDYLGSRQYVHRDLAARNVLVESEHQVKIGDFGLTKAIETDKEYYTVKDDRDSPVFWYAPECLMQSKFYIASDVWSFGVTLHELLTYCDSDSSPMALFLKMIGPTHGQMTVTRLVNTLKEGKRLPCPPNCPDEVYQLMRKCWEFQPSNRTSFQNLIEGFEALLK

## [H]/N=C(/c1ccccc1)N(O)Cc1nc2cnc3[nH]ccc3c2n1[C@H]1CC[C@H](CC#N)CC1 [Ex. 17B, (Z)—N-((1-((1r,4r)-4-(Cyanomethyl)cyclohexyl)-1,6-dihydroimidazo[4,5-d]pyrrolo[23-b]pyridin-2-yl)methyl)-N-hydroxybenzimidamide]
JAK1-JH1JH2
  IC50: 0.5 nM
JAK3-JH1JH2
  IC50: 102 nM
Tyk2-JH1JH2
  IC50: 2.9 nM
JAK2-JH1JH2
  IC50: 4.5 nM

## N#CC[C@H]1CC[C@H](n2c(-c3ccc(C(=O)c4ccc(CO)cc4)cc3)nc3cnc4[nH]ccc4c32)CC1 [Ex. 121, 2-((1r,4r)-4-(2-(4-(4-(Hydroxymethyl)benzoyl)phenyl)imidazo[4,5-d]pyrrolo[2,3-b]pyridin-1(6H)-yl)cyclohexyl)acetonitrile]
JAK1-JH1JH2
  IC50: 0.7 nM
JAK3-JH1JH2
  IC50: 431 nM
Tyk2-JH1JH2
  IC50: 44.3 nM
JAK2-JH1JH2
  IC50: 11.4 nM

## CNC(=O)Cc1nc2cnc3[nH]ccc3c2n1C12CCC(CC#N)(CC1)CC2 [Ex. 209, 2-(1-(4-(Cyanomethyl)bicyclo[2.2.2]octan-1-yl)-1,6-dihydroimidazo[4,5-d]pyrrolo[2,3-b]pyridin-2-yl)-N-methylacetamide]
JAK1-JH1JH2
  IC50: 18.9 nM
JAK3-JH1JH2
  IC50: 604 nM
Tyk2-JH1JH2
  IC50: 651 nM
JAK2-JH1JH2
  IC50: 520 nM

## N#CC[C@H]1CC[C@H](n2c(CC(=O)Nc3ccc(C#N)cc3)nc3cnc4[nH]ccc4c32)CC1 [Ex. 200, 2-(1-((1r,4r)-4-(Cyanomethyl)cyclohexyl)-1,6-dihydroimidazo[4,5-d]pyrrolo[2,3-b]pyridin-2-yl)-N-(4-cyanophenyl)acetamide]
JAK1-JH1JH2
  IC50: < 4 nM
JAK3-JH1JH2
  IC50: 13.7 nM
Tyk2-JH1JH2
  IC50: 12.5 nM
JAK2-JH1JH2
  IC50: < 3.5 nM

## N#CC[C@H]1CC[C@H](n2c(C(=O)NCCO)nc3cnc4[nH]ccc4c32)CC1 [Ex. 114, 1-((1r,4r)-4-(Cyanomethyl)cyclohexyl)-N-(2-hydroxyethyl)-1,6-dihydroimidazo[4,5-d]pyrrolo[2,3-b]pyridine-2-carboxamide]
JAK1-JH1JH2
  IC50: 0.6 nM
JAK3-JH1JH2
  IC50: 102 nM
Tyk2-JH1JH2
  IC50: 12.7 nM
JAK2-JH1JH2
  IC50: 4.8 nM

## N#CC[C@H]1CC[C@H](n2c(-c3n[nH]cc3Cl)nc3cnc4[nH]ccc4c32)CC1 [Ex. 31, 2-((1r,4r)-4-(2-(4-Chloro-1H-pyrazol-3-yl)imidazo[4,5-d]pyrrolo[2,3-b]pyridin-1(6H)-yl)cyclohexyl)acetonitrile]
JAK1-JH1JH2
  IC50: 0.2 nM
JAK3-JH1JH2
  IC50: 121 nM
Tyk2-JH1JH2
  IC50: 3.7 nM
JAK2-JH1JH2
  IC50: 5.5 nM

## COCC/C(=N/O)NCc1nc2cnc3[nH]ccc3c2n1[C@H]1CC[C@H](CC#N)CC1 [Ex. 125]
JAK1-JH1JH2
  IC50: 0.7 nM
JAK3-JH1JH2
  IC50: 622 nM
Tyk2-JH1JH2
  IC50: 14.9 nM
JAK2-JH1JH2
  IC50: 27.1 nM

## N#CC[C@H]1CC[C@H](n2c(CNC(=O)c3cn[nH]c3)nc3cnc4[nH]ccc4c32)CC1 [Ex. 144, N-((1-((1r,4r)-4-(Cyanomethyl)cyclohexyl)-1,6-dihydroimidazo[4,5-d]pyrrolo[2,3-b]pyridin-2-yl)methyl)-1H-pyrazole-4-carboxamide]
JAK1-JH1JH2
  IC50: 1 nM
JAK3-JH1JH2
  IC50: 376 nM
Tyk2-JH1JH2
  IC50: 16.2 nM
JAK2-JH1JH2
  IC50: 43.1 nM

## Cc1nc(C)c(-c2nc3cnc4[nH]ccc4c3n2[C@H]2CC[C@H](CC#N)CC2)s1 [Ex. 184, 2-((1r,4r)-4-(2-(2,4-dimethylthiazol-5-yl)imidazo[4,5-d]pyrrolo[2,3-b]pyridin-1(6H)-yl)cyclohexyl)acetonitrile]
JAK1-JH1JH2
  IC50: 25.5 nM
JAK3-JH1JH2
  IC50: 1230 nM
Tyk2-JH1JH2
  IC50: 319 nM
JAK2-JH1JH2
  IC50: 230 nM

## N#CC[C@H]1CC[C@H](n2c(-c3ccc(C#N)cc3)nc3cnc4[nH]ccc4c32)CC1 [Ex. 96, 4-(1-((1r,4r)-4-(Cyanomethyl)cyclohexyl)-1,6-dihydroimidazo[4,5-d]pyrrolo[2,3-b]pyridin-2-yl)benzonitrile]
JAK1-JH1JH2
  IC50: 0.5 nM
JAK3-JH1JH2
  IC50: 460 nM
Tyk2-JH1JH2
  IC50: 49.6 nM
JAK2-JH1JH2
  IC50: 33.8 nM

## N#CC[C@H]1CC[C@H](n2c(CC(=O)Nc3cn[nH]c3)nc3cnc4[nH]ccc4c32)CC1 [Ex. 64, 2-(1-((1r,4r)-4-(Cyanomethyl)cyclohexyl)-1,6-dihydroimidazo[4,5-d]pyrrolo[2,3-b]pyridin-2-yl)-N-(1H-pyrazol-4-yl)acetamide]
JAK1-JH1JH2
  IC50: 0.3 nM
JAK3-JH1JH2
  IC50: 51.4 nM
Tyk2-JH1JH2
  IC50: 5.7 nM
JAK2-JH1JH2
  IC50: 5.6 nM

## N#CC[C@H]1CC[C@H](n2c(CC(=O)N3CCC(O)CC3)nc3cnc4[nH]ccc4c32)CC1 [Ex. 12, 2-((1r,4r)-4-(2-(2-(4-Hydroxypiperidin-1-yl)-2-oxoethyl)imidazo[4,5-d]pyrrolo[2,3-b]pyridin-1(6H)-yl)cyclohexyl)acetonitrile]
JAK1-JH1JH2
  IC50: 0.1 nM
JAK3-JH1JH2
  IC50: 99.4 nM
Tyk2-JH1JH2
  IC50: 1.4 nM
JAK2-JH1JH2
  IC50: 9.2 nM

## N#CCC12CCC(n3c(CC(=O)N4CCCCC4)nc4cnc5[nH]ccc5c43)(CC1)CC2 [Ex. 205, 2-(4-(2-(2-Oxo-2-(piperidin-1-yl)ethyl)imidazo[4,5-d]pyrrolo[2,3-b]pyridin-1(6H)-yl)bicyclo[2.2.2]octan-1-yl)acetonitrile]
JAK1-JH1JH2
  IC50: 5.3 nM
JAK3-JH1JH2
  IC50: 439 nM
Tyk2-JH1JH2
  IC50: 606 nM
JAK2-JH1JH2
  IC50: 487 nM

## N#CC[C@H]1CC[C@H](n2c(CO/N=C(\N)c3ccccc3)nc3cnc4[nH]ccc4c32)CC1 [Ex. 124, (Z*)—N-((1-((1r,4r)-4-(Cyanomethyl)cyclohexyl)-1,6-dihydroimidazo[4,5-d]pyrrolo[2,3-b]pyridin-2-yl)methoxy)benzimidamide]
JAK1-JH1JH2
  IC50: 0.7 nM
JAK3-JH1JH2
  IC50: 141 nM
Tyk2-JH1JH2
  IC50: 18.1 nM
JAK2-JH1JH2
  IC50: 4.4 nM

## N#CC[C@H]1CC[C@H](n2c(Cc3cscn3)nc3cnc4[nH]ccc4c32)CC1 [Ex. 41, 2-((1r,4r)-4-(2-(Thiazol-4-ylmethyl)imidazo[4,5-d]pyrrolo[2,3-b]pyridin-1(6H)-yl)cyclohexyl)acetonitrile]
JAK1-JH1JH2
  IC50: < 0.2 nM
JAK3-JH1JH2
  IC50: 19.9 nM
Tyk2-JH1JH2
  IC50: 0.6 nM
JAK2-JH1JH2
  IC50: 0.4 nM

## COCCCNC(=O)c1nc2cnc3[nH]ccc3c2n1[C@H]1CC[C@H](CC#N)CC1 [Ex. 173, 1-((1r,4r)-4-(Cyanomethyl)cyclohexyl)-N-(3-methoxypropyl)-1,6-dihydroimidazo[4,5-d]pyrrolo[2,3-b]pyridine-2-carboxamide]
JAK1-JH1JH2
  IC50: 1.3 nM
JAK3-JH1JH2
  IC50: 732 nM
Tyk2-JH1JH2
  IC50: 55.9 nM
JAK2-JH1JH2
  IC50: 28 nM

## N#CC[C@H]1CC[C@H](n2c(CC(=O)NCc3ccc(CO)cc3)nc3cnc4[nH]ccc4c32)CC1 [Ex. 68, 2-(1-((1r,4r)-4-(Cyanomethyl)cyclohexyl)-1,6-dihydroimidazo[4,5-d]pyrrolo[2,3-b]pyridin-2-yl)-N-(4-(hydroxymethyl)benzyl)acetamide]
JAK1-JH1JH2
  IC50: 0.3 nM
JAK3-JH1JH2
  IC50: 180 nM
Tyk2-JH1JH2
  IC50: 13.3 nM
JAK2-JH1JH2
  IC50: 8.2 nM

## N#CC[C@H]1CC[C@H](n2c(CNS(=O)(=O)C3CCCCC3)nc3cnc4[nH]ccc4c32)CC1 [Ex. 141, N-((1-((1r,4r)-4-(Cyanomethyl)cyclohexyl)-1,6-dihydroimidazo[4,5-d]pyrrolo[2,3-b]pyridin-2-yl)methyl)cyclohexanesulfonamide]
JAK1-JH1JH2
  IC50: 0.9 nM
JAK3-JH1JH2
  IC50: 4070 nM
Tyk2-JH1JH2
  IC50: 66.7 nM
JAK2-JH1JH2
  IC50: 95.8 nM

## N#CC[C@H]1CC[C@H](n2c(C(=O)NCC3(O)COC3)nc3cnc4[nH]ccc4c32)CC1 [Ex. 80, 1-((1r,4r)-4-(Cyanomethyl)cyclohexyl)-N-((3-hydroxyoxetan-3-yl)methyl)-1,6-dihydroimidazo[4,5-d]pyrrolo[2,3-b]pyridine-2-carboxamide]
JAK1-JH1JH2
  IC50: 0.4 nM
JAK3-JH1JH2
  IC50: 89.7 nM
Tyk2-JH1JH2
  IC50: 4.1 nM
JAK2-JH1JH2
  IC50: 2.1 nM

## N#CC[C@H]1CC[C@H](n2c(CC(=O)NCC(O)CO)nc3cnc4[nH]ccc4c32)CC1 (stereo partly shown) [Ex. 106, 2-(1-((1r,4r)-4-(Cyanomethyl)cyclohexyl)-1,6-dihydroimidazo[4,5-d]pyrrolo[2,3-b]pyridin-2-yl)-N-(2,3-dihydroxypropyl)acetamide]
JAK1-JH1JH2
  IC50: 0.6 nM
JAK3-JH1JH2
  IC50: 149 nM
Tyk2-JH1JH2
  IC50: 11.2 nM
JAK2-JH1JH2
  IC50: 14.3 nM

## N#CCCNC(=O)c1nc2cnc3[nH]ccc3c2n1[C@H]1CC[C@H](CC#N)CC1 [Ex. 138, N-(2-Cyanoethyl)-1-((1r,4r)-4-(cyanomethyl)cyclohexyl)-1,6-dihydroimidazo[4,5-d]pyrrolo[2,3-b]pyridine-2-carboxamide]
JAK1-JH1JH2
  IC50: 0.9 nM
JAK3-JH1JH2
  IC50: 195 nM
Tyk2-JH1JH2
  IC50: 18.7 nM
JAK2-JH1JH2
  IC50: 18.9 nM

## N#CC[C@H]1CC[C@H](n2c(CC(N)=O)nc3cnc4[nH]ccc4c32)CC1 [Ex. 201, 2-(1-((1r,4r)-4-(Cyanomethyl)cyclohexyl)-1,6-dihydroimidazo[4,5-d]pyrrolo[2,3-b]pyridin-2-yl)acetamide]
JAK1-JH1JH2
  IC50: < 4 nM
JAK3-JH1JH2
  IC50: 47.5 nM
Tyk2-JH1JH2
  IC50: 1.1 nM
JAK2-JH1JH2
  IC50: 1.9 nM

## N#CC[C@H]1CC[C@H](n2c(CC(=O)NCCOc3ccncc3)nc3cnc4[nH]ccc4c32)CC1 [Ex. 43, 2-(1-((1r,4r)-4-(Cyanomethyl)cyclohexyl)-1,6-dihydroimidazo[4,5-d]pyrrolo[2,3-b]pyridin-2-yl)-N-(2-(pyridin-4-yloxy)ethyl)acetamide]
JAK1-JH1JH2
  IC50: 0.2 nM
JAK3-JH1JH2
  IC50: 87.4 nM
Tyk2-JH1JH2
  IC50: 5.7 nM
JAK2-JH1JH2
  IC50: 5.1 nM

## N#CC[C@H]1CC[C@H](n2c(C(=O)NCC3CC3)nc3cnc4[nH]ccc4c32)CC1 [Ex. 174, 1-((1r,4r)-4-(cyanomethyl)cyclohexyl)-N-(cyclopropylmethyl)-1,6-dihydroimidazo[4,5-d]pyrrolo[2,3-b]pyridine-2-carboxamide]
JAK1-JH1JH2
  IC50: 2.2 nM
JAK3-JH1JH2
  IC50: 604 nM
Tyk2-JH1JH2
  IC50: 55.2 nM
JAK2-JH1JH2
  IC50: 57.2 nM

## N#CCCC(=O)NCc1nc2cnc3[nH]ccc3c2n1[C@H]1CC[C@H](CC#N)CC1 [Ex. 157, 3-Cyano-N-((1-((1r,4r)-4-(cyanomethyl)cyclohexyl)-1,6-dihydroimidazo[4,5-d]pyrrolo[2,3-b]pyridin-2-yl)methyl)propanamide]
JAK1-JH1JH2
  IC50: 1.4 nM
JAK3-JH1JH2
  IC50: 1110 nM
Tyk2-JH1JH2
  IC50: 39.5 nM
JAK2-JH1JH2
  IC50: 74.9 nM

Source: patent US10981911B2, “Imidazopyrrolopyridine as inhibitors of the JAK family of kinases” (Janssen Pharmaceutica NV, priority 2016, dated 2021)
